Consider 1 compound from US5945422A, “N-oxides of amino containing pyrido [2,3-D] pyrimidines” (Warner-Lambert Company, priority 1998, dated 1999).

Type in all cases: biochemical
One assay concerns the target T1, C-src kinase (Homo sapiens, UniProt P12931).
T1 construct: made in house; host or cells: baculovirus infected insect cells
In words: C-src kinase assay. Conditions: poly GluTyr substrate, 10 min, room temperature; read-out: C-src TK inhibition, IC50. As to the method:
The antibody, covalently linked to 0.65-μm latex beads, is added to a suspension of insect cell lysis buffer comprised of 150 mM NaCl, 50 mM Tris pH 7.5, 1 mM DTT, 1% NP-40, 2 mM EGTA, 1 mM sodium vanadate, 1 mM PMSF, 1 μg/mL each of leupeptin, pepstatin, and aprotinin. […] At the end of the lysate incubation, the beads are rinsed 3 times in lysis buffer, resuspended in lysis buffer containing 10% glycerol, and frozen. These latex beads are thawed, rinsed 3 times in assay buffer which is comprised of 40 mM tris pH 7.5, 5 mM MgCl2, and suspended in the same buffer. […] The reaction is started at room temperature by addition of the ATP and quenched 10 minutes later by the addition of 125 μL of 30% TCA, 0.1M sodium pyrophosphate for 5 minutes on ice. The plate is then filtered and the wells washed with two 250-μL aliquots of 15% TCA, 0.1M pyrophosphate. The filters are punched, counted in a liquid scintillation counter, and the data examined for inhibitory activity in comparison to a known inhibitor such as erbstatin. The method is described more fully in J. Med. Chem., 37:598-609 (1994).

Assay [1] deals with T2, human FGF-1 (flg) receptor tyrosine kinase (Homo sapiens, UniProt P11362).
T2 construct: amplify a fragment of DNA that codes for the intracellular tyrosine kinase domain; made in house; host or cells: SF9 insect cells, baculovirus (cell lysate used)
T2 sequence (P11362 478-767 limits assumed): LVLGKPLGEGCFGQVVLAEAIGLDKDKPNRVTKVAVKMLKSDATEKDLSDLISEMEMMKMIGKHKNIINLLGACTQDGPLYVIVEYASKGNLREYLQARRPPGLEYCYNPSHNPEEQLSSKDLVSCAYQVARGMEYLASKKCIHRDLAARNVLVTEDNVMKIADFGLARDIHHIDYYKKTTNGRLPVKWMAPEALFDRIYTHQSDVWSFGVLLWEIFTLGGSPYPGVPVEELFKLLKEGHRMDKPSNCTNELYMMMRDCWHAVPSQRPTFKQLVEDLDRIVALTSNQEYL
In words: FGF receptor tyrosine kinase assay (FGFr-TK). Conditions: 10 min at 25° C., glutamate-tyrosine co-polymer substrate; read-out: FGFr-TK inhibition, IC50. From the text: PDGF and FGF Receptor Tyrosine Kinase Assays
Full length cDNAs for the mouse PDGF-β and human FGF-1 (flg) receptor tyrosine kinases were obtained from J. Escobedo and prepared as described in J. Biol. Chem., 262:1482-1487 […], and PCR primers were designed to amplify a fragment of DNA that codes for the intracellular tyrosine kinase domain. The fragment was melded into a baculovirus vector, cotransfected with AcMNPV DNA, and the recombinant virus isolated. SF9 insect cells were infected with the virus to overexpress the protein, and the cell lysate was used for the assay. […] Briefly, to each well was added 82.5 μL of incubation buffer containing 25 mM Hepes (pH 7.0), 150 mM NaCl, 0.1% Triton X-100, 0.2 mM PMSF, 0.2 mM Na3 VO4, 10 mM MnCl2, and 750 μg/mL of Poly (4:1) glutamate-tyrosine followed by 2.5 μL of inhibitor and 5 μL of enzyme lysate (7.5 μg/μL FGF-TK or 6.0 μg/μL PDGF-TK) to initiate the reaction. Following a 10 minute incubation at 25° C., 10 μL of γ^32 P-ATP (0.4 μCi plus 50 μM ATP) was added to each well and samples were incubated for an additional 10 minutes at 25° C. […] Nonspecific activity was defined as radioactivity retained on the filters following incubation of samples with buffer alone (no enzyme). […]

Assay [2] deals with T3, mouse PDGF-β receptor tyrosine kinase (Mus musculus, UniProt P05622).
T3 construct: amplify a fragment of DNA that codes for the intracellular tyrosine kinase domain; made in house; host or cells: SF9 insect cells, baculovirus (cell lysate used)
T3 sequence (P05622 599-961 limits assumed): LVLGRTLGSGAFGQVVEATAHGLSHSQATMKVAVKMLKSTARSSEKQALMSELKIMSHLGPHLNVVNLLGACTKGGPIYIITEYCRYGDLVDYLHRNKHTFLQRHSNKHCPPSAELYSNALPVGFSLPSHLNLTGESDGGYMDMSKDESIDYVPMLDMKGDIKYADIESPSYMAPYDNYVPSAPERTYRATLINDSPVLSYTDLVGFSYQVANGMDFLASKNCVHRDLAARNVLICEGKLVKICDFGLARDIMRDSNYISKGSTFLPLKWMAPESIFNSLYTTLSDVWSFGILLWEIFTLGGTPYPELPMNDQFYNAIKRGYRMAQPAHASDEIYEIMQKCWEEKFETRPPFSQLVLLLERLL
Nature of the assay: PDGF receptor tyrosine kinase assay (PDGFr-TK). Conditions: 10 min at 25° C., glutamate-tyrosine co-polymer substrate; read-out: PDGFr-TK inhibition, IC50. The protocol: SF9 insect cells were infected with the virus to overexpress the protein, and the cell lysate was used for the assay. […] The reaction was terminated by the addition of 100 μL of 30% trichloroacetic acid (TCA) containing 20 mM sodium pyrophosphate and precipitation of material onto glass fiber filter mats (Wallac). […] Nonspecific activity was defined as radioactivity retained on the filters following incubation of samples with buffer alone (no enzyme). Specific enzymatic activity was defined as total activity (enzyme plus buffer) minus nonspecific activity.

The term IC50 denotes the concentration needed to halve the response being measured.

T1 sequence (P12931 whole entry): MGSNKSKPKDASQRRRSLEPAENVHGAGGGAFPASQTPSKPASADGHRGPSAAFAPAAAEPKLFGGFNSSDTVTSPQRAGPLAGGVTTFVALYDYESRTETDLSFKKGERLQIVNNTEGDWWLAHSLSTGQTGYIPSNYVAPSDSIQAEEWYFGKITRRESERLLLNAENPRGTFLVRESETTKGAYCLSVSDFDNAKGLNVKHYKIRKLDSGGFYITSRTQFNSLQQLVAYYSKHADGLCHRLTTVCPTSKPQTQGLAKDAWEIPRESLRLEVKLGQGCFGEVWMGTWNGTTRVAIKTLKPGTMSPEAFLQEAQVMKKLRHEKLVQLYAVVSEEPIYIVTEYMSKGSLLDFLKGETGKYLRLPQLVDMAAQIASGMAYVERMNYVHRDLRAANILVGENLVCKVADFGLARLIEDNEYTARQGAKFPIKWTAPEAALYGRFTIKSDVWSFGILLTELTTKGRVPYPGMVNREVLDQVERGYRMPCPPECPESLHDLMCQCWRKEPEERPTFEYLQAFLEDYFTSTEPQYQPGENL

With `CC[N+]([O-])(CC)CCOc1ccc(Nc2ncc3cc(-c4c(Cl)cccc4Cl)c(=O)n(C)c3n2)cc1` [Example 43, 6-(2,6-Dichlorophenyl)-2-[4-[2-(diethylamino)ethoxyl-thenyl]aminol-8-methyl-pyridor2,3-d]pyrimidin-7 (8H)-one, N^ω -oxide], the half-inhibitory concentration (IC50) on C-src kinase is 15 nM; in assay [1], 63 nM; in assay [2], 70 nM.
